This is an account of results in patent US7968526B2, “Antisense oligonucleotides directed to ribonucleotide reductase R2 and uses thereof in the treatment of cancer” (Lorus Therapeutics Inc., priority 2003, dated 2011).

The data set has as its system MDA-CDDP-S4 human in vivo-selected Cisplatin-resistant breast adenocarcinoma cells. Description: MDA-CDDP-S4 Cisplatin-resistant breast adenocarcinoma, fat pad, SCID mice (2.3). Details: species or system human cells in mice. The protocol:
BxPC-3 is a gemcitabine resistant call line. […] Gemcitabine was administered intravenously every three days at a dose of 100 mg/kg. Antitumour activities were estimated by the inhibition of tumour volume, which was measured with caliper. Each point represents mean tumour volume calculated from 10 animals per experimental group. […] Hela S3 is a hydroxyurea resistant cell line. […] Hydroxyurea was administered intraperitoneally every day at a dose of 250 mg/kg for 10 days. Cisplatin was administered intravenously once a week for three weeks at a dose of 4 mg/kg. Antitumour activities were estimated by the inhibition of tumour volume, which was measured with caliper. Each point represents mean tumour volume calculated from 10 animals per experimental group. […] Cisplatin was administered intravenously once a week for three weeks at a dose of 4 mg/kg. Taxol was administered intravenously once a week for three weeks at a dose of 10 mg/kg. Antitumour activities were estimated by the inhibition of tumour volume, which was measured with caliper. Each point represents mean tumour volume calculated from 10 animals per experimental group. […] Taxol was administered i.p. once a week at a dose of 10 mg/kg. Antitumour activities were estimated by the inhibition of tumour volume (FIG. 12A), which was measured with calipers. Each point represents mean tumour volume calculated from 10 animals per experimental group. Animals were sacrificed and tumour weights taken at the end of the study (FIG. 12C). […] Cisplatin was administered intravenously once a week for four weeks at a dose of 4 mg/kg. Taxol was administered intravenously once a week for four weeks at a dose of 20 mg/kg. Antitumour activities were estimated by the inhibition of tumour volume, which was measured with caliper. Each point represents mean tumour volume calculated from 9-10 animals per experimental group. […] Cisplatin was administered intravenously once a week for four weeks at a dose of 4 mg/kg. Antitumour activities were estimated by the inhibition of tumour volume, which was measured with caliper. Each point represents mean tumour volume calculated from 10 animals per experimental group. At the end of the study the animals were sacrificed and tumours weighed. […] Taxol was administered i.p. once a week at a dose of 10 mg/kg. Anti-tumour activity was estimated by the inhibition of tumour volume, which was measured with caliper. Each point represents mean tumour volume calculated from 10 animals per experimental group. In addition animals were sacrificed and tumour weights taken at the end of the study. […] CPT-11 was administered i.p. for 5 days at a dose of 20 mg/kg/day. Antitumour activities were estimated by the inhibition of tumour volume, which was measured with caliper. Each point represents mean tumour volume calculated from 10 animals per experimental group. Tumour weights were measured after animals were sacrificed at the end of the treatment. These cells are not resistant to CPT-11 which was used as a positive control.

As for “5′-GGCTAAATCGCTCCACCAAG-3′ (all phosphorothioate, sugars by position and methylation of C not given here) [SEQ ID NO: 1, fully phosphorothioated antisense oligonucleotide that hybridizes to the coding region of R2 mRNA]”, the “Tumour weight as % of saline control” value (MDA-CDDP-S4 (breast), Cisplatin resistant, SCID, SEQ ID NO:1 10 mg/kg i.v. every other day 9 times, Taxol 10 mg/kg, Cisplatin 4 mg/kg i.v. weekly x3) was 32%. The “Antitumour effect (FIG. 11)” value (MDA-CDDP-S4 Cisplatin-resistant, SCID mice, SEQ ID NO:1 10 mg/kg i.v. every other day, Cisplatin 4 mg/kg, Taxol 10 mg/kg i.v. weekly) is reported as “significant reduction of tumour weight compared to saline control”.
